In US8728797B2, “Yeast membrane protein expression system and its application in drug screening” (priority 2001, dated 2014):
In brackets after ≈: the same amount, converted by molar mass.

Experiments:
S. cerevisiae AD1-8/CDR2 = experiment: MIC microdilution test, strain expressing Cdr2p; format: cell-based; conditions: Saccharomyces cerevisiae, AD18/CDR2, 30° C.
Experimental: (§1) The MICs of antifungal agents for S. cerevisiae cells were determined by a microdilution test based on the macrodilution reference method of the National Committee for Clinical Laboratory Standards. Cells (10 μl cell suspension, 2×10^5 cells/ml) were inoculated into 90 μl CSM-URA, buffered with 10 mM 2-(N-morpholino)ethanesulfonic acid (MES) and 18 mM N-2-hydroxyethylpiperazine-N′-2-ethanesulfonic acid (HEPES), pH 7.0 and containing 0.67% (w/v) yeast nitrogen base (YNB) in microtitre plate wells. For the uracil-requiring strain AD1-8u^− the medium was supplemented with 0.02% (w/v) uridine. The wells contained, in […], doubling dilutions of antifungal agents (final concentrations: fluconazole, 40-0.078 μg/ml; itraconazole and ketoconazole, 8-0.016 μg/ml). The microtitre plates were incubated at 30° C. for 48 h with shaking and then the growth of cells in individual wells (OD590) was measured with a microplate reader (EL 340, Bio-Tek, Winooski, Vt.). The MIC80 was the lowest concentration of drug that inhibited growth yield by at least 80% compared to a no-drug control.

S. cerevisiae AD1-8u^− = experiment: MIC microdilution test, parental strain; format: cell-based; conditions: Saccharomyces cerevisiae; AD1-8u^− parental strain; 30° C., 48 h, pH 7.0
Experimental: as §1

[1] = test system: S. cerevisiae AD1002 expressing C. albicans Cdr1p; experiment: MIC microdilution test, strain expressing Cdr1p; format: cell-based; conditions: for MIC80: AD1002 expressing Cdr1p, 30° C., 48 h, pH 7.0; for fold increase in MIC: AD1002 relative to parental AD1-8u^−
Experimental: as §1

Pdr5p ATPase = biological target: T1, Pdr5p ATPase (Saccharomyces cerevisiae, UniProt P33302); experiment: Oligomycin sensitive ATPase activity of AD124567 plasma membranes; format: biochemical, S. cerevisiae; conditions: in vitro
T1 construct: plasma membranes from the AD124567 yeast strain overexpressing Pdr5p; endogenous in cells; host or cells: S. cerevisiae AD124567 (pdr1-3, PDR5 intact), plasma membrane fraction
Experimental: (A) Inhibition profiles of oligomycin-sensitive Pdr5p ATPase activity by the purified peptides D-NH2-asparagine-tryptophan-tryptophan-lysine-valine-arginine-arginine-arginine-CONH2 (KN0) and its singly substituted Mtr-derivative KN20. (B) Inhibition profile with KN20 on the oligomycin-sensitive Cdr1p ATPase activity of plasma membranes from AD1002 minus the oligomycin-sensitive ATPase activity of plasma membranes from the isogenic AD1-8u^− strain.
Yeast were grown in YEPD, pH 5.5 at 30° C. until they reached late-exponential phase of growth (OD600 nm=7), washed twice in ice-cold distilled water, and incubated on ice for 30 min to minimize glucose-stimulated Pma1p activity. Cells were resuspended in homogenising medium (50 mM Tris pH 7.5, 2 mM EDTA and 1 mM phenylmethylsulfonyl fluoride) and disrupted using a Braun Homogeniser. Cell debris and unbroken cells were removed by centrifuging at 2,000×g at 4° C. for 10 min. A crude membrane fraction was isolated from the cell-free supernatant by centrifuging at 30,000×g at 4° C. for 45 min. Plasma membranes were prepared by centrifugation of the supernatant obtained after selective precipitation of mitochondria at pH 5.2 as described previously (Goffeau, A. and Dufour, J. P., 1988). […] Protein was determined using a micro-Bradford (Bio-Rad Laboratories, Hercules, Calif. [Bradford, M. M., 1976]) assay with gamma-globulin as standard. Nucleotide triphosphatase activity was measured by incubating the plasma membrane fractions (10 μg) at 30° C. in a final volume of 120 μl containing 6 mM NTP, 7 mM MgSO4 in 59 mM MES-Tris buffer pH 6.0-8.0. […] Other ATPase inhibitors (20 μM oligomycin, 20 μM aurovertin B or 100 μM vanadate were added to the reaction where indicated. After 30 min the reaction was stopped by adding 130 μl of a solution containing 1% (w/v) SDS, 0.6 M H2SO4, 1.2% (w/v) ammonium molybdate and 1.6% (w/v) ascorbic acid. Inorganic phosphate released from NTPs was measured at 750 nm after 10 min incubation at room temperature.

AD1002 = experiment: Disk drug susceptibility assay of chemosensitisation to fluconazole; format: cell-based, S. cerevisiae; conditions: 5 μg/ml fluconazole, 12 nanomole peptide on disk
Experimental: (A) Checkerboard drug susceptibility assay of AD1002. This assay was conducted as described in Materials and methods in the presence of the indicated concentrations of fluconazole and KN20. (B) Disk drug susceptibility assay of AD1002. This assay was conducted, as described in Materials and methods for Example 4, in the absence or presence of 5 μg/ml fluconazole, with (1) KN0 (12 nanomole), (2) KN20 (12 nanomole) or (0) control amounts of DMSO applied to the disks. (C) Checkerboard drug susceptibility assay of ATCC 10261. This assay was conducted, as described in Material and methods for Example 4, in the presence of the indicated concentrations of fluconazole and KN20. D indicates cell death as measured by a failure to recover any colony forming units when samples from microtitre plate wells were cultured on solid YPD medium.
(§2) Drug susceptibility was measured using disk assays on CSM-URA plates (containing 1.5% w/v agar). Plates were seeded with yeast cells suspended in top agar (5 ml, 10^5 cells/ml). For the uracil-dependent parental strain, agar was supplemented with 0.02% uridine. Five microliters of drug solution or solvent control were spotted onto sterile Whatman paper disks on the top agar. […]

[2] = test system: AD124567 (Pdr5p-overexpressing); experiment: as above; format: cell-based, S. cerevisiae; conditions: 120 μg/ml fluconazole, 47 nanomole peptide on disk
Experimental: (A) Checkerboard drug susceptibility assay of AD124567 in the presence of the indicated concentrations of fluconazole and KN20. (B) Disk drug susceptibility assay of AD124567. This assay was conducted, as described in Materials and methods for example 4, in the absence or presence of fluconazole (120 μg/ml), and in the presence of (1) KN0 (47 nanomole), (2) KN20 (47 nanomole) or (0) control amounts of DMSO applied to disks
as §2

T1 sequence (P33302 whole entry): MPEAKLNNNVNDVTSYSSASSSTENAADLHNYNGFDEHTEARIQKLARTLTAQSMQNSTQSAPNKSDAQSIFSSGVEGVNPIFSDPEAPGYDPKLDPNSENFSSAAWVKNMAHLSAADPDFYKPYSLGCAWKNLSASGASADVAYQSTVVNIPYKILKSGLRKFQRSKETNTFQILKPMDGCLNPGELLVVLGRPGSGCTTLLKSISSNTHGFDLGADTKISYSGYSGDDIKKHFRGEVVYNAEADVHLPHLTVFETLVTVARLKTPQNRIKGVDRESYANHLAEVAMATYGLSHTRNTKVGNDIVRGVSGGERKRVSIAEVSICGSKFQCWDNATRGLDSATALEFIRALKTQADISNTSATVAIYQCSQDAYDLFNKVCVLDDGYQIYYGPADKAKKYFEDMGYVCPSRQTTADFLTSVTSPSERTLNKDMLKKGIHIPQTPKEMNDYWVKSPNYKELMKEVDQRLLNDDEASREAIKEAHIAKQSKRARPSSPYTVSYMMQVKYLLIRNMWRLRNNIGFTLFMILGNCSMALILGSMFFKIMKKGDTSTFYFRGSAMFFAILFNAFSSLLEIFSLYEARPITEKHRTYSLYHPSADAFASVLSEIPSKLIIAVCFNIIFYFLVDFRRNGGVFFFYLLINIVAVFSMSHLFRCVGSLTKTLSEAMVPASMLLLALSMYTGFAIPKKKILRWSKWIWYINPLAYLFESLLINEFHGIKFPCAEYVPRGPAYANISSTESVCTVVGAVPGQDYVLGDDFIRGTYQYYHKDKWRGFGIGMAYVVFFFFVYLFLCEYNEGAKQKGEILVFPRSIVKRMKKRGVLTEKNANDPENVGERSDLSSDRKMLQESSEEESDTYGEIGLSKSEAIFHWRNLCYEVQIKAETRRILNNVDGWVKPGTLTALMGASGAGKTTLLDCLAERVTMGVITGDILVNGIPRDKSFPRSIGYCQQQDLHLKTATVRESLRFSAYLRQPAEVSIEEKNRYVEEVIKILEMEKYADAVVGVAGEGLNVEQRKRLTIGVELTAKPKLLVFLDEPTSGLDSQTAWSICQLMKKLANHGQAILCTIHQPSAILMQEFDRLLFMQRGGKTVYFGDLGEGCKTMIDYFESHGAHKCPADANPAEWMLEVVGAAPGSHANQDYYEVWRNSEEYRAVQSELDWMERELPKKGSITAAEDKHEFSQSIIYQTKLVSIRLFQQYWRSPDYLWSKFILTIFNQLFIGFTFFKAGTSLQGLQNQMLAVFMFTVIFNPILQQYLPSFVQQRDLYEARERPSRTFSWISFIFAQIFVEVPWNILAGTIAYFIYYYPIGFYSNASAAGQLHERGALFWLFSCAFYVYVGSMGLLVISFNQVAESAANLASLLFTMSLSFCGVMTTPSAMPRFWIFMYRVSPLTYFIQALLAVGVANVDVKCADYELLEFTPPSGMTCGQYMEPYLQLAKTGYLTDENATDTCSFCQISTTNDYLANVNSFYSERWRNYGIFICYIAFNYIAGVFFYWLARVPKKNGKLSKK

Compound | MIC80 (S. cerevisiae AD1-8/CDR2) | MIC80 (S. cerevisiae AD1-8u^−) | MIC80 [1] | fold increase in MIC [1] | effect on oligomycin sensitive Pdr5p ATPase activity (Pdr5p ATPase) | chemosensitisation to fluconazole in disk assay (AD1002) | chemosensitisation to fluconazole in disk assay [2]
CC(=O)N1CCN(c2ccc(OCC3COC(Cn4ccnc4)(c4ccc(Cl)cc4Cl)O3)cc2)CC1 (centres unmarked) [ketoconazole] | 2 µg/mL (≈ 3.76 µM) | < 0.016 µg/mL | 0.5 µg/mL (≈ 0.941 µM) | > 31 fold |  |  | 
D-NH2-asparagine-tryptophan-tryptophan-lysine-valine-arginine-arginine-arginine-CONH2 [KN0] |  |  |  |  | ineffective | ineffective at chemosensitisation | ineffective at chemosensitisation
CCC(C)n1ncn(-c2ccc(N3CCN(c4ccc(OCC5COC(Cn6cncn6)(c6ccc(Cl)cc6Cl)O5)cc4)CC3)cc2)c1=O (centres unmarked) [itraconazole] | 1 µg/mL (≈ 1.42 µM) | < 0.016 µg/mL | 4 µg/mL (≈ 5.67 µM) | > 250 fold |  |  | 
